Test results reported in patent US20230192686A1, “1H-PYRROLO[2,3-B]PYRIDINES AND PREPARATION AND USES THEREOF” (BioSplice Therapeutics, Inc., priority 2021, published 2023).
pEC50: −log10 of the molar value.

Target: recombinant DYRK1A kinase (Homo sapiens, UniProt Q13627)
Experiment: DYRK1A kinase assay (Ser/Thr 18 peptide Z-lyte FRET)
Type: biochemical
Settings: DYRK1A kinase activity; 15 μM ATP, 4 μM Ser/Thr peptide 18, one hour at room temperature
Protocol: Representative compounds were screened using the assay procedure for DYRK1A kinase activity as described below.
Each compound was dissolved in DMSO as a 10 mM stock and used to prepare compound source plates. Serial dilution (1:3, 11-point dose-response curves from 10 μM to 0.00016 μM) and compound transfer was performed using the ECHO 550 (Labcyte, Sunnyvale, Calif.) into 1536-well black-walled round bottom plates (Corning).
The DYRK1A kinase assay was run using the Ser/Thr 18 peptide Z-lyte assay kit according to manufacturer's instructions (Life Technologies—a Division of Thermo-Fisher). This is a non-radioactive assay using fluorescence resonance energy transfer (FRET) between coumarin and fluorescein to detect kinase activity which is represented as a ratio of coumarin emission/fluorescein emission.
Briefly, recombinant DYRK1A kinase, ATP and Ser/Thr peptide 18 were prepared in 1× Kinase buffer to final concentrations of 0.25 μg/mL, 15 μM, and 4 μM respectively. The mixture was allowed to incubate with the representative compounds for one hour at room temperature. All reactions were performed in duplicate. Unphosphorylated (“0% Control”) and phosphorylated (“100% control”) forms of Ser/Thr 18 served as control reactions. Additionally, an 11-point dose-response curve of Staurosporine (1 uM top) was run to serve as a positive compound control.
After incubation, Development Reagent A was diluted in Development Buffer then added to the reaction and allowed to further incubate for one hour at room temperature. The plate was read at Ex 400 Em 455 to detect the coumarin signal and Ex 400 Em 520 to measure the signal (EnVision Multilabel Plate Reader, PerkinElmer).
The Emission ratio (Em) was calculated as a ratio of the coumarin (C) emission signal (at 445 nm)/Fluorescein (F) emission signal (at 520 nm). The percent phosphorylation was then calculated using the following formula: [1−((Em ratio×F100%)−C100%)/((C0%−C100%)+(Em ratio×(F100%−F0%)))]. Dose-response curves were generated, and inhibitory concentration (IC50) values were calculated using non-linear regression curve fit in the Dotmatics' Studies Software (Bishops Stortford, UK).

Structure (SMILES) | pEC50
Cc1nc2c(F)cc(-c3c[nH]c4ncc(C(=O)Nc5ccc(N6CCN(C)CC6)nc5)cc34)cc2n1C(C)C [Compound 787, 3-(4-Fluoro-1-isopropyl-2-methyl-1H-benzo[d]imidazol-6-yl)-N-(6-(4-methylpiperazin-1-yl)pyridin-3-yl)-1H-pyrrolo[2,3-b]pyridine-5-carboxamide] | 8.52
CN1CCN(C(=O)c2cnn3ccc(-c4c[nH]c5ncc(C(F)(F)F)cc45)cc23)CC1 [Compound 2050, (4-Methylpiperazin-1-yl)(5-(5-(trifluoromethyl)-1H-pyrrolo[2,3-b]pyridin-3-yl)pyrazolo[1,5-a]pyridin-3-yl)methanone] | 6.80
Cc1nc2c(F)cc(-c3c[nH]c4nc(CO)ccc34)cc2n1C(C)C [Compound 1795, (3-(4-Fluoro-1-isopropyl-2-methyl-1H-benzo[d]imidazol-6-yl)-1H-pyrrolo[2,3-b]pyridin-6-yl)methanol] | 8.10
Cc1ccccc1-c1cnc2[nH]cc(-c3cc(F)c4nc(C)n(C(C)C)c4c3)c2c1 [Compound 955, 4-Fluoro-1-isopropyl-2-methyl-6-(5-(o-tolyl)-1H-pyrrolo[2,3-b]pyridin-3-yl)-1H-benzo[d]imidazole] | 7.70
CN1CCC(Nc2ncnc3ccc(-c4c[nH]c5ncc(-c6cnn(C)c6)cc45)cc23)CC1 [Compound 1074, 6-(5-(1-Methyl-1H-pyrazol-4-yl)-1H-pyrrolo[2,3-b]pyridin-3-yl)-N-(1-methylpiperidin-4-yl)quinazolin-4-amine] | 7.72
COCCN1CCC(NC(=O)c2cnn3ccc(-c4c[nH]c5ncccc45)cc23)CC1 [Compound 50, N-(1-(2-Methoxyethyl)piperidin-4-yl)-5-(1H-pyrrolo[2,3-b]pyridin-3-yl)pyrazolo[1,5-a]pyridine-3-carboxamide] | 9.00
c1cn2cc(-c3c[nH]c4nc(C5CCC5)ccc34)ncc2n1 [Compound 2042, 6-(6-Cyclobutyl-1H-pyrrolo[2,3-b]pyridin-3-yl)imidazo[1,2-a]pyrazine] | 6.46
Cc1nnc2ccc(-c3c[nH]c4ncccc34)cn12 [Compound 32, 3-Methyl-6-(1H-pyrrolo[2,3-b]pyridin-3-yl)-[1,2,4]triazolo[4,3-a] pyridine] | 6.82
c1cnc2[nH]cc(-c3ccc4ncnc(N5CCNC6(CCC6)C5)c4c3)c2c1 [Compound 97, 6-(1H-Pyrrolo[2,3-b]pyridin-3-yl)-4-(5,8-diazaspiro[3.5]nonan-8-yl) quinazoline] | 8.70
c1cnc2ccc(-c3c[nH]c4nc(-c5cncs5)ccc34)cc2c1 [Compound 2055, 5-(3-(quinolin-6-yl)-1H-pyrrolo[2,3-b]pyridin-6-yl)thiazole] | 7.43
CN1C2CCC1CN(C(=O)c1cnc3[nH]cc(-c4cc5ccncc5s4)c3c1)C2 [Compound 2041, (8-Methyl-3,8-diazabicyclo[3.2.1]octan-3-yl)(3-(thieno[2,3-c]pyridin-2-yl)-1H-pyrrolo[2,3-b]pyridin-5-yl)methanone] | 6.94
CN(C)Cc1cnc2ccc(-c3c[nH]c4ncccc34)cn12 [Compound 18, 1-(6-(1H-Pyrrolo[2,3-b]pyridin-3-yl)imidazo[1,2-a]pyridin-3-yl)-N,N-dimethylmethanamine] | 7.77
COc1ccc2c(-c3ccc4ncnn4c3)c[nH]c2n1 [Compound 1673, 6-(6-Methoxy-1H-pyrrolo[2,3-b]pyridin-3-yl)-[1,2,4]triazolo[1,5-a] pyridine] | 7.19
Cc1nc2ccc(-c3c[nH]c4ncccc34)nc2n1C(C)C [Compound 27, 3-Isopropyl-2-methyl-5-(1H-pyrrolo[2,3-b]pyridin-3-yl)-3H-imidazo [4,5-b]pyridine] | 8.70
CN1CCN(c2cc(-c3cnc4[nH]cc(-c5ccn6ncc(-c7cnn(C)c7)c6c5)c4c3)ccn2)CC1 [Compound 1384, 3-(3-(1-methyl-1H-pyrazol-4-yl)pyrazolo[1,5-a]pyridin-5-yl)-5-(2-(4-methylpiperazin-1-yl)pyridin-4-yl)-1H-pyrrolo[2,3-b]pyridine] | 9.00
Cc1nc2c(F)cc(-c3c[nH]c4ncc(C(=O)NC5CCN(C)CC5)cc34)cc2n1C(C)C [Compound 451, 3-(4-Fluoro-1-isopropyl-2-methyl-1H-benzo[d]imidazol-6-yl)-N-(1-methylpiperidin-4-yl)-1H-pyrrolo[2,3-b]pyridine-5-carboxamide] | 8.40

Structure (SMILES) | pEC50
CC(F)(F)CN1CCC(NC(=O)c2cnn3ccc(-c4c[nH]c5ncccc45)cc23)CC1 [Compound 49, N-(1-(2,2-Difluoropropyl)piperidin-4-yl)-5-(1H-pyrrolo[2,3-b]pyridin-3-yl)pyrazolo[1,5-a]pyridine-3-carboxamide] | 9.00
CN1CCN(c2ccc(CNc3ccnc4[nH]cc(-c5ccc6ncccc6c5)c34)cn2)CC1 [Compound 2051, N-((6-(4-Methylpiperazin-1-yl)pyridin-3-yl)methyl)-3-(quinolin-6-yl)-1H-pyrrolo[2,3-b]pyridin-4-amine] | 7.43
O=C(c1cnn2ccc(-c3c[nH]c4ncccc34)cc12)N1CC2CNCC2C1 (centres unmarked) [Compound 63, (5-(1H-Pyrrolo[2,3-b]pyridin-3-yl)pyrazolo[1,5-a]pyridin-3-yl) (hexahydropyrrolo[3,4-c]pyrrol-2(1H)-yl)methanone] | 8.30
CC1(C)COc2ccc(-c3c[nH]c4ncccc34)cc21 [Compound 72, 3-(3,3-Dimethyl-2,3-dihydrobenzofuran-5-yl)-1H-pyrrolo[2,3-b] pyridine] | 7.04
CN1CCN(C(=O)c2cnn3ccc(-c4c[nH]c5ncc(F)cc45)cc23)CC1 [Compound 257, (5-(5-Fluoro-1H-pyrrolo[2,3-b]pyridin-3-yl)pyrazolo[1,5-a]pyridin-3-yl)(4-methylpiperazin-1-yl)methanone] | 7.80
Cc1nc2c(F)cc(-c3c[nH]c4ncc(-c5cnn6c5CN(C)CC6)cc34)cc2n1C(C)C [Compound 1123, 3-(3-(4-Fluoro-1-isopropyl-2-methyl-1H-benzo[d]imidazol-6-yl)-1H-pyrrolo[2,3-b]pyridin-5-yl)-5-methyl-4,5,6,7-tetrahydropyrazolo[1,5-a]pyrazine] | 8.40
c1cnc2[nH]cc(-c3ccc4c(c3)CCCO4)c2c1 [Compound 79, 3-(Chroman-6-yl)-1H-pyrrolo[2,3-b]pyridine] | 7.62
Cc1ccc2c(-c3ccc4c(c3)C(C)(C)NC4=O)c[nH]c2n1 [Compound 1481, 3,3-Dimethyl-5-(6-methyl-1H-pyrrolo[2,3-b]pyridin-3-yl)isoindolin-1-one] | 7.24
CN1CCC(NC(=O)c2ncnc3ccc(-c4c[nH]c5ncccc45)cc23)CC1 [Compound 106, N-(1-Methylpiperidin-4-yl)-6-(1H-pyrrolo[2,3-b]pyridin-3-yl) quinazoline-4-carboxamide] | 8.52
CN1C2CCC1CN(C(=O)c1cnc3[nH]cc(-c4ccn5nccc5c4)c3c1)C2 [Compound 2049, (8-Methyl-3,8-diazabicyclo[3.2.1]octan-3-yl)(3-(pyrazolo[1,5-a]pyridin-5-yl)-1H-pyrrolo[2,3-b]pyridin-5-yl)methanone] | 7.35
CN1CCC(NC(=O)c2cnn3ccc(-c4c[nH]c5ncc(-c6cccnc6)cc45)cc23)CC1 [Compound 1178, N-(1-Methylpiperidin-4-yl)-5-(5-(pyridin-3-yl)-1H-pyrrolo[2,3-b]pyridin-3-yl)pyrazolo[1,5-a]pyridine-3-carboxamide] | 8.22
CN1C2CCC1CN(C(=O)c1cnn3ccc(-c4c[nH]c5ncccc45)cc13)C2 [Compound 58, (5-(1H-Pyrrolo[2,3-b]pyridin-3-yl)pyrazolo[1,5-a]pyridin-3-yl)(8-methyl-3,8-diazabicyclo[3.2.1]octan-3-yl)methanone] | 7.92
Cc1nc2c(F)cc(-c3c[nH]c4ncc(C(=O)Nc5cnn(C6CCN(C)CC6)c5)cc34)cc2n1C(C)C [Compound 703, 3-(4-Fluoro-1-isopropyl-2-methyl-1H-benzo[d]imidazol-6-yl)-N-(1-(1-methylpiperidin-4-yl)-1H-pyrazol-4-yl)-1H-pyrrolo[2,3-b]pyridine-5-carboxamide] | 8.52
CN1CCN(c2ccc(NC(=O)c3cnc4[nH]cc(-c5ccn6ncnc6c5)c4c3)cn2)CC1 [Compound 792, 3-([1,2,4]Triazolo[1,5-a]pyridin-7-yl)-N-(6-(4-methylpiperazin-1-yl)pyridin-3-yl)-1H-pyrrolo[2,3-b]pyridine-5-carboxamide] | 8.00
Cn1cc(-c2cnc3[nH]cc(-c4ccc5nccn5c4)c3c2)cn1 [Compound 1036, 6-(5-(1-Methyl-1H-pyrazol-4-yl)-1H-pyrrolo[2,3-b]pyridin-3-yl) imidazo[1,2-a]pyridine] | 8.70
CN1Cc2cc(-c3c[nH]c4ncccc34)ccc2C1=O [Compound 76, 2-Methyl-5-(1H-pyrrolo[2,3-b]pyridin-3-yl)isoindolin-1-one] | 7.51
